Several values for one entry are separate records, joined by “and”; a condition that tells them apart may be missing. Equal values may be shown once. Read-outs that look alike come from different tables or passages of the source.
Key:
Mice = conditions: cited from earlier work; for LD50: Mice
[1] = test system: diabetic (streptozotocin-treated) rats; test: Oral administration in diabetic rats, plasma glucose; type: in vivo, rat; conditions: for Glucose / Glucose Level (% initial level): unmodified insulin oral 80 μ/kg
Protocol: (§1) The term "diabetic rat" in the following tests refers to rats having been treated with streptozoticin by intravenous injection at a dosage of 75 mg/kg at least 4 days prior to the experiments in question. All rats used in the experiments had been fasting 12-18 hours prior to the experiments. Blood samples were taken at appropriate intervals as disclosed in the tables from a vein cannula which was implanted in a jugular vein. During the experiments, rats were awake, were able to move freely and had access to water (but no food). Plasma glucose was measured on a Beckman Glucose Analyzer 2 employing the enzymatic reaction of β-D-glucose with oxygen and measuring oxygen consumption rather than hydrogen peroxide formation.
B. Oral Administration of Regular and Modified Insulin (at 80μ/kg) in Normal and Diabetic Rats.
The three controls were regular insulin, a carrier complex of SDS:TEA, and a complex of albumin:SDS:TEA in the same weight ratio as than in the insulin complex; i.e., albumin:SDS:TEA=5:7.5:3.6.
The results of oral administrations of modified insulin and carrier complex (SDS:TEA=1:1 by mole) in the amount equivalent to that in the sandwich complex of insulin calculated based on 80μof insulin per kg of rat in normal rats are shown in Tables 3 and 4. The results of oral administrations of modified insulin, regular insulin, carrier complex and the sandwich complex of albumin (albumin:SDS:TEA in a weight ratio of 5:7.5:3.6) in diabetic rats are shown in Tables 5, 6, 7 and 8 respectively.

[2] = test system: diabetic (streptozotocin-treated) rats; test: Intravenous administration in diabetic rats, plasma glucose; type: in vivo; conditions: for % Initial plasma glucose conc. / Actual plasma glucose: iv 0.5 μ/kg
Protocol: as §1
A. Intravenous (iv) Administration of Regular and Modified Insulin in Diabetic Rats
From 15 min to 45 min after iv administration, the induced hypoglycemic effect was more pronounced in regular-insulin-treated aminals.

[3] = diabetic rats, 15 min, mean ± SD
[4] = diabetic rats, 15 min, single rats
[5] = diabetic rats, 30 min, mean ± SD
[6] = diabetic rats, 30 min, single rats
[7] = diabetic rats, 45 min, mean ± SD
[8] = diabetic rats, 45 min, single rats
[9] = diabetic rats, 60 min, mean ± SD
[10] = diabetic rats, 60 min, single rats
[11] = diabetic rats, 90 min, mean ± SD
[12] = diabetic rats, 90 min, single rats
[13] = diabetic rats, 120 min, mean ± SD
[14] = diabetic rats, 120 min, single rats
[15] = diabetic rats, 180 min, mean ± SD
[16] = diabetic rats, 180 min, single rats
[17] = diabetic rats, 300 min, mean ± SD
[18] = diabetic rats, 300 min, single rats

Cn1ccnc1 [1-methylimidazole]
LD50 (Mice; ipr.): 380 mg/kg | toxicity (in words) (Mice; mouse, in vivo): very slight | LD50 (Mice; oral): 1500 mg/kg

Insulin: Insulin (bovine pancreas, crystalline; 25.5 μ/mg; Sigma)
systemic hypoglycemic effect (in words) ([1]; oral administration): does not result in a systemic, hypoglycemic effect | Glucose ([1]; 15 min, Mean ± Std. Dev.): 273 ± 112 mg/100 ml | Glucose Level (% initial level) ([1]; 15 min, Mean ± Std. Dev.): 134 ± 20% | Glucose ([1]; 15 min, single rats): 145 mg/100 ml and 371 mg/100 ml and 214 mg/100 ml and 363 mg/100 ml | Glucose Level (% initial level) ([1]; 15 min, single rats): 119% and 155.2% and 146.6% and 115% | Glucose ([1]; 30 min, Mean ± Std. Dev.): 325 ± 28 mg/100 ml | Glucose Level (% initial level) ([1]; 30 min, Mean ± Std. Dev.): 104.7 ± 19.8% | Glucose ([1]; 30 min, single rats): 293 mg/100 ml and 343 mg/100 ml and 340 mg/100 ml | Glucose Level (% initial level) ([1]; 30 min, single rats): 122.6% and 107.9% and 83.5% | Glucose ([1]; 45 min, Mean ± Std. Dev.): 327 ± 82 mg/100 ml | Glucose Level (% initial level) ([1]; 45 min, Mean ± Std. Dev.): 105.6 ± 31.2% | Glucose ([1]; 45 min, single rats): 270 mg/100 ml and 421 mg/100 ml and 290 mg/100 ml | Glucose Level (% initial level) ([1]; 45 min, single rats): 113.0% and 132.4% and 71.3% | Glucose ([1]; 60 min, Mean ± Std. Dev.): 285 ± 87 mg/100 ml | Glucose Level (% initial level) ([1]; 60 min, Mean ± Std. Dev.): 124.1 ± 57.9% | Glucose ([1]; 60 min, single rats): 152 mg/100 ml and 309 mg/100 ml and 272 mg/100 ml and 329 mg/100 ml and 410 mg/100 ml and 239 mg/100 ml | Glucose Level (% initial level) ([1]; 60 min, single rats): 124.6% and 129.3% and 77.5% and 225.3% and 128.9% and 58.7% | Glucose ([1]; 120 min, Mean ± Std. Dev.): 270 ± 118 mg/100 ml | Glucose Level (% initial level) ([1]; 120 min, Mean ± Std. Dev.): 121.4 ± 79.4% | Glucose ([1]; 120 min, single rats): 122 mg/100 ml and 288 mg/100 ml and 251 mg/100 ml and 392 mg/100 ml and 411 mg/100 ml and 157 mg/100 ml | Glucose Level (% initial level) ([1]; 120 min, single rats): 100% and 120.5% and 71.5% and 268.5% and 129.2% and 38.6% | Glucose ([1]; 180 min, Mean ± Std. Dev.): 331 ± 127 mg/100 ml | Glucose Level (% initial level) ([1]; 180 min, Mean ± Std. Dev.): 123.3 ± 76.1% | Glucose ([1]; 180 min, single rats): 296 mg/100 ml and 226 mg/100 ml and 502 mg/100 ml and 422 mg/100 ml and 211 mg/100 ml | Glucose Level (% initial level) ([1]; 180 min, single rats): 123.9% and 64.5% and 243.8% and 132.7% and 51.8% | Glucose ([1]; 300 min, Mean ± Std. Dev.): 282 mg/100 ml | Glucose Level (% initial level) ([1]; 300 min, Mean ± Std. Dev.): 116.1 ± 75.0% | Glucose ([1]; 300 min, single rats): 290 mg/100 ml and 189 mg/100 ml and 342 mg/100 ml and 391 mg/100 ml and 196 mg/100 ml | Glucose Level (% initial level) ([1]; 300 min, single rats): 121.3% and 53.8% and 234.2% and 123.0% and 48.2% | % Initial plasma glucose conc. [2, 3]: 63.8% | Actual plasma glucose [2, 3]: 239 mg % | % Initial plasma glucose conc. [2, 4]: 46.1% and 63.8% and 57.7% and 84.5% and 47.9% and 82.5% | Actual plasma glucose [2, 4]: 197 mg % and 176 mg % and 214 mg % and 359 mg % and 113 mg % and 372 mg % | % Initial plasma glucose conc. [2, 5]: 50.0% | Actual plasma glucose [2, 5]: 185 mg % | % Initial plasma glucose conc. [2, 6]: 43.9% and 53.6% and 16.2% and 69.7% and 36.9% and 79.4% | Actual plasma glucose [2, 6]: 358 mg % and 159 mg % and 148 mg % and 60 mg % and 296 mg % and 87 mg % | % Initial plasma glucose conc. [2, 7]: 48.3% | Actual plasma glucose [2, 7]: 169 mg % | % Initial plasma glucose conc. [2, 8]: 36.5% and 59.1% and 31.0% and 56.2% and 41.5% and 65.3% | Actual plasma glucose [2, 8]: 296 mg % and 132 mg % and 163 mg % and 84 mg % and 239 mg % and 98 mg % | % Initial plasma glucose conc. [2, 9]: 49.2 ± 15.4% | Actual plasma glucose [2, 9]: 176 ± 83 mg % | % Initial plasma glucose conc. [2, 10]: 38.4% and 57.6% and 27.2% and 51.8% and 48.3% and 71.6% | Actual plasma glucose [2, 10]: 323 mg % and 139 mg % and 159 mg % and 101 mg % and 220 mg % and 114 mg % | % Initial plasma glucose conc. [2, 11]: 53.0 ± 9% | Actual plasma glucose [2, 11]: 190 ± 69 mg % | % Initial plasma glucose conc. [2, 12]: 45.4% and 53.6% and 50.4% and 46.1% and 51.7% and 70.7% | Actual plasma glucose [2, 12]: 319 mg % and 168 mg % and 148 mg % and 187 mg % and 196 mg % and 122 mg % | % Initial plasma glucose conc. [2, 13]: 50.1 ± 10.1% | Actual plasma glucose [2, 13]: 177 ± 32 mg % | % Initial plasma glucose conc. [2, 14]: 42.3% and 58.0% and 56.9% and 35.1% and 60.6% and 47.8% | Actual plasma glucose [2, 14]: 215 mg % and 153 mg % and 160 mg % and 211 mg % and 149 mg % and 143 mg % | % Initial plasma glucose conc. [2, 15]: 57.8% | Actual plasma glucose [2, 15]: 196 mg % | % Initial plasma glucose conc. [2, 16]: 58.8% and 59.8% and 76.3% and 37.9% and 67.8% and 45.9% | Actual plasma glucose [2, 16]: 207 mg % and 213 mg % and 165 mg % and 283 mg % and 161 mg % and 160 mg % | % Initial plasma glucose conc. [2, 17]: 65.7% | Actual plasma glucose [2, 17]: 225 mg % | % Initial plasma glucose conc. [2, 18]: 60.8% and 58.1% and 89.2% and 46.6% and 90.7% and 48.6% | Actual plasma glucose [2, 18]: 219 mg % and 220 mg % and 167 mg % and 331 mg % and 198 mg % and 214 mg % | hypoglycemic effect (in words), rat #285 ([2]; iv administration, diabetic rat #285 treated with both agents): progressive hypoglycemic effect | hypoglycemic effect (in words) ([2]; iv administration, diabetic rats): progressive, systemic, hypoglycemic effects for five hours in all animals

— patent publication US4582820A, “Orally administered biologically active peptides and proteins” (Research Corporation, priority 1982, dated 1986)
